From patent US10761087B2, “Choroidal neovascularization suppressor or drusen formation suppressor, and method for assessing or screening for same” (Link Genomics, Inc., priority 2015, dated 2020)
Entries after “also recorded” stand apart in the source; their conditions may differ. Read-outs that look alike come from different tables or passages of the source.

Tests used:
[1] = cited from earlier work
[2] = test system: EMT markers (mesenchymal markers, ECM) in RPE cells (ARPE-19); assay: Change in expression of EMT markers (real-time PCR) in EMT-induced RPE cells; assay type: cell-based, human; conditions: for EMT suppression (FIG. 3 to FIG. 7) / Expression of EMT markers other than the ten common markers / Expression of Snail, Slug, CDH3, MMP1, MMP7, COL5A3, COL6A3, LAMC2, HMMR, TNC / Enhancement of expression of Fibronectin, Snail and vimentin (mesenchymal markers): EMT-induced ARPE-19, 48 hours; for EMT suppression (FIG. 3 to FIG. 7) / Expression of EMT markers other than the ten common markers / Expression of Snail, Slug, CDH3, MMP1, MMP7, COL5A3, COL6A3, LAMC2, HMMR, TNC: oxaprozin 300 μM, epalrestat 30 μM, zafirlukast 3 μM, amlexanox 30 μM, zaltoprofen 30 μM; for Enhancement of expression of Fibronectin, Snail and vimentin (mesenchymal markers): compound at Cmax, ½ of Cmax or ¼ of Cmax; for Expression of EMT markers at the time of EMT induction (FIG. 8 to FIG. 12): flufenamic acid aluminum 28 μM, mefenamic acid 39 μm, sulindac 100 μM, tiaprofenic acid 1000 μM, seratrodast 31 μM
Method: RPE cells (ARPE-19) were seeded on a plate, and incubated for 5 days at 37° C. For the RPE cells, EMT was induced in the conditions described in Test example 1-1, and respective compounds (oxaprozin, epalrestat, zafirlukast, amlexanox, zaltoprofen) were added simultaneously, and the cells were collected after 48 hours from induction of EMT. As a control, a sample to which a compound to be assessed (test drug) is not added was used. The collected cells were washed with PBS, and 350 μL of an RLT buffer was added to prepare a lysate for RNA extraction. The respective compounds were used in the following concentrations. Oxaprozin: 300 μM, epalrestat: 30 μM, zafirlukast: 3 μM, amlexanox: 30 μM, zaltoprofen: 30 μM. Total RNA was extracted from the lysate using an RNeasy Micro kit (QIAGEN, #74004), and from 2 μg of the obtained RNA, cDNA was prepared using a SuperScript III First-Strand Synthesis SuperMix for qRT-PCR (Invitrogen, #11752-250). Using 50 ng of the obtained cDNA as a template, a real-time PCR (ABI Prism 7500 Sequence Detection System) was conducted according to the manufacturer's protocol, and expression of mRNA of each gene was quantified. Specific primers for respective genes were purchased from Invitrogen. Ct (Threshold Cycle) value of each gene was calculated as a percentage to a non-treated sample after normalization by endogenous control.
Five compounds (flufenamic acid aluminum (addition concentration: 28 μM (Cmax)), mefenamic acid (addition concentration: 39 μm (Cmax)), sulindac (addition concentration: 100 μM), tiaprofenic acid (addition concentration: 1000 μM), and seratrodast (addition concentration: 31 μM (Cmax))) were assessed for change in expression of EMT markers in the same manner as in Test example 2-1. The results are shown in FIG. 8 to FIG. 12, respectively.
(§1) RPE cells (ARPE-19) were seeded on a plate, and incubated for 5 days at 37° C. […] Each compound was added in a concentration of Cmax, ½ of Cmax or ¼ of Cmax. As a control, a sample to which a compound to be assessed (test drug) is not added was used. The collected cells were washed with PBS, and 350 μL of an RLT buffer was added to prepare a lysate for RNA extraction. Total RNA was extracted from the lysate using an RNeasy Micro kit (QIAGEN, #74004), and from 2 μg of the obtained RNA, cDNA was prepared using a SuperScript III First-Strand Synthesis SuperMix for qRT-PCR (Invitrogen, #11752-250). Using 50 ng of the obtained cDNA as a template, a real-time PCR (ABI Prism 7500 Sequence Detection System) was conducted according to the manufacturer's protocol, and expression of mRNA of each gene was quantified. Specific primers for respective genes were purchased from Invitrogen. Ct (Threshold Cycle) value of each gene was calculated as a percentage to a non-treated sample after normalization by endogenous control. For each result, a significant test (Student t test) was conducted, and when p<0.05, the result was marked with “*”, and when p<0.01, the result was marked with “**”.
RPE cells (ARPE-19) were seeded on a plate, and incubated for 5 days at 37° C. For the RPE cells, EMT was induced in the conditions described in Test example 5-1, and the five representative compounds (oxaprozin, epalrestat, zafirlukast, amlexanox, zaltoprofen) were added simultaneously, and the cells were collected after 48 hours from induction of EMT. As a control, a sample to which a compound to be assessed (test drug) is not added was used. The collected cells were washed with PBS, and 350 μL of an RLT buffer was added to prepare a lysate for RNA extraction. Total RNA was extracted from the lysate using an RNeasy Micro kit (QIAGEN, # 74004), and from 2 μg of the obtained RNA, cDNA was prepared using a SuperScript III First-Strand Synthesis SuperMix for qRT-PCR (Invitrogen, # 11752-250). […]

RPE cells (ARPE-19) = assay: Focus (drusen-like structure) formation suppression in EMT induction model of RPE cells; assay type: cell-based, human; conditions: for Suppression of drusen-like structure formed in the RPE cell model: FIG. 35 to 39; for IC50: Homo sapiens
Method: RPE cells (ARPE-19) were seeded on a plate, and incubated for 5 days at 37° C. […] As a control of EMT induction, a sample to which a compound to be assessed (test drug) is not added was used. After 48 hours from EMT induction, the cells were fixed by treating with a 4% paraformaldehyde solution for 30 minutes at room temperature, and then washed three times with PBS. The cells were treated with a 0.2% Triton-X/PBS solution for 5 minutes, and washed three times with PBS. […] The fluorescent-stained cells were imaged by using an Image Express Micro (available from Molecular Devices), and digitized by using a MetaXpress2.0 (available from Molecular Devices). By analyzing the degree of formation of Focus (Focus level) from the numerical data, a Focus formation suppressing rate was calculated according to the following Formula 1 on the basis of the numerical value at the time of no addition of a compound, and the EMT suppressive effect in each compound was verified. The degree of formation of Focus (Focus level) was determined according to the number and the volume of Focus as indexes.
IC50 in the table was calculated using the following Formula 2.
A: Higher concentration sandwiching 50%
B: Lower concentration sandwiching 50%
C: Inhibition rate at lower concentration sandwiching 50%
D: Inhibition rate at higher concentration sandwiching 50%
RPE cells (ARPE-19) were seeded on a plate, and incubated for 5 days at 37° C. […] As a control of EMT induction, a sample to which a compound to be assessed (test drug) is not added was used. The cells after observation were fixed by treating with a 4% paraformaldehyde solution for 30 minutes at room temperature, and then washed three times with PBS. The cells were treated with a 0.2% Triton-X/PBS solution for 5 minutes, and washed three times with PBS. […] The fluorescent-stained cells were imaged by using an Image Express Micro (available from Molecular Devices), and digitized by using a MetaXpress2.0 (available from Molecular Devices). By analyzing the degree of formation of Focus from the numerical data, a Focus formation suppressing rate was calculated on the basis of the case without addition of a compound and the case without EMT induction, and the EMT suppressive effect in each compound was verified. […] After washing three times with methanol, the cells were dried for 3 hours at room temperature. The dried cells were observed under a microscope.

VEGF = assay: Change in expression of VEGF mRNA (real-time PCR) in EMT-induced RPE cells; assay type: cell-based, human; conditions: EMT-induced ARPE-19, 48 hours, compound at Cmax, ½ of Cmax or ¼ of Cmax
Method: as §1
The results are shown in FIG. 16 or FIG. 17, respectively.
The VEGF suppressive effect was assessed using the cell model as described above in the same manner as in Test example 2-3. The results are shown in FIG. 18 to FIG. 20, respectively.

[3] = Pharmaceutical Interview Form, single-dose administration, read-out: Cmax
[4] = Table 3, from the interview form and the package insert of each drug, read-out: Cmax
[5] = Table 1, EMT-induced ARPE-19, compound added simultaneously, 48 hours, read-out: IC50 (Focus formation suppressing rate, EMT suppressive effect)
[6] = Test example 7, EMT-induced ARPE-19, 48 hours, read-out: IC50 values in the drusen-like structure suppressing tests
[7] = quoted in Test examples 2-3, 2-4, 2-5, read-out: Cmax (as quoted in the VEGF test examples)
[8] = RPE, Table 2, same manner as Test example 6-1, read-out: IC50 (Focus formation suppressing rate, EMT suppressive effect)

Structure (SMILES)	Cmax [1, 3] [µM]	IC50 (RPE cells (ARPE-19); [5]) [µM]	Cmax [1, 7] [µM]	Enhancement of expression of Fibronectin, Snail and vimentin (mesenchymal markers) [2]	Expression of EMT markers at the time of EMT induction (FIG. 8 to FIG. 12) [2]	IC50 (RPE cells (ARPE-19); [8]) [µM]	Enhancement of VEGF mRNA expression by EMT induction (VEGF)	further results
COc1cc(C(=O)NS(=O)(=O)c2ccccc2C)ccc1Cc1cn(C)c2ccc(NC(=O)OC3CCCC3)cc12 [Zafirlukast, zafirlukast]	0.8	3.8						Cmax [1, 4]: 0.8 µM; EMT suppression (FIG. 3 to FIG. 7) [2]: significantly suppress EMT; Expression of EMT markers other than the ten common markers [2]: decrease in expression was observed in MMP3, COL13A1, LAMB3, or CSPG4; Expression of Snail, Slug, CDH3, MMP1, MMP7, COL5A3, COL6A3, LAMC2, HMMR, TNC [2]: suppressed expression; Suppression of drusen-like structure formed in the RPE cell model (RPE cells (ARPE-19); EMT-induced ARPE-19, 48 hours): suppresses a drusen-like structure formed in the RPE cell model in a concentration-dependent manner; IC50 (RPE cells (ARPE-19); [6]): 3.8 µM
O=C(O)c1ccccc1Nc1cccc(C(F)(F)F)c1 [flufenamic acid aluminum]	27.9		27.9	suppressed enhancement of expression of these in a concentration dependent manner	significantly suppress expression of EMT markers at the time of EMT induction; also recorded: lower expression of EMT markers at the time of EMT induction	4.4	suppress enhancement of mRNA expression of VEGF	Enhancement of VEGF mRNA expression by EMT induction (VEGF; listed as Flufenamic acid aluminum): suppressed enhancement of VEGF expression in a concentration dependent manner
O=C(Nc1cccc2c(=O)cc(-c3nnn[nH]3)oc12)c1ccc(OCCCCc2ccccc2)cc1 [Pranlukast, pranlukast]		1.1						
COc1ccc2c(c1)c(CC(=O)O)c(C)n2C(=O)c1ccc(Cl)cc1 [indomethacin]			2.79	did not suppress enhancement of expression of these			did not suppress enhancement of VEGF expression	
CC(C(=O)O)c1ccc(-c2ccccc2)c(F)c1 (centres unmarked) [Flurbiprofen, flurbiprofen]		32.6						
CCc1cccc2c3c([nH]c12)C(CC)(CC(=O)O)OCC3 (centres unmarked) [Etodolac, etodolac]			42.5	did not suppress enhancement of expression of these			did not suppress enhancement of VEGF expression	
CC1=C(C)C(=O)C(C(CCCCCC(=O)O)c2ccccc2)=C(C)C1=O (centres unmarked) [Seratrodast, seratrodast]	31		31			54.6		
CC(C)Cc1ccc(C(C)C(=O)O)cc1 (centres unmarked) [Ibuprofen, ibuprofen]		18						
CC(C)c1ccc2oc3nc(N)c(C(=O)O)cc3c(=O)c2c1 [Amlexanox, amlexanox]	16	32.5						Cmax [1, 4]: 16 µM; EMT suppression (FIG. 3 to FIG. 7) [2]: significantly suppress EMT; Expression of EMT markers other than the ten common markers [2]: decrease in expression was observed in ZEB2, CDH2, MMP3, COL1A1, and COL13A1; Expression of Snail, Slug, CDH3, MMP1, MMP7, COL5A3, COL6A3, LAMC2, HMMR, TNC [2]: suppressed expression; Suppression of drusen-like structure formed in the RPE cell model (RPE cells (ARPE-19); EMT-induced ARPE-19, 48 hours): suppresses a drusen-like structure formed in the RPE cell model in a concentration-dependent manner; IC50 (RPE cells (ARPE-19); [6]): 32.5 µM
Cc1cccc(Nc2ccccc2C(=O)O)c1C [Mefenamic acid, mefenamic acid]	38.5		38.5	suppressed enhancement of expression of these in a concentration dependent manner	significantly suppress expression of EMT markers at the time of EMT induction; also recorded: lower expression of EMT markers at the time of EMT induction	12.4	suppressed enhancement of VEGF expression in a concentration dependent manner	Enhancement of VEGF mRNA expression by EMT induction (VEGF; listed as mefenamic acid): suppress enhancement of mRNA expression of VEGF
CC1=C(CC(=O)O)c2cc(F)ccc2/C1=C\c1ccc([S+](C)[O-])cc1 (centres unmarked) [Sulindac, sulindac]	10.1				significantly suppress expression of EMT markers at the time of EMT induction; also recorded: lower expression of EMT markers at the time of EMT induction	35.3		
CC(/C=C1\SC(=S)N(CC(=O)O)C1=O)=C\c1ccccc1 [Epalrestat, epalrestat]	12.2	16.9	12.2					Cmax [1, 4]: 12.2 µM; IC50 (RPE cells (ARPE-19); [6]): 16.9 µM
CC(C(=O)O)c1ccc(C(=O)c2ccccc2)s1 (centres unmarked) [Tiaprofenic acid, tiaprofenic acid]	69.2				significantly suppress expression of EMT markers at the time of EMT induction; also recorded: lower expression of EMT markers at the time of EMT induction	374		
